pIC50: −log10 of the molar value.
Target: human CXCR2 (Homo sapiens (Human), UniProt P25025)
Experiment: CXCR2 inhibition: calcium fluorescence assay (FLIPR)
Format: cell-based
Details: chemokine IL-8; CHO-K1 cells stably transfected with human CXCR2 and Gα16; Fluo-4 calcium response
Description: Determination of CXCR2 Inhibition: Calcium Fluorescence Assay (FLIPR)
The assay is based on the detection of intracellular calcium changes detected by the selective, calcium-chelating dye, Fluo-4 (Molecular Probes). A large fluorescence intensity increase is observed upon calcium association with Fluo-4. The dye is delivered to the cell interior using an acetoxymethylester form of Fluo-4, where the intracellular esterase activity results in the charged species being released and trapped within the cytoplasm of the cell. […] By co-expressing the CXCR2 receptor and the promiscuous Gα16 protein, activation of this chemokine receptor is directed into this phospholipase C cascade resulting in intracellular calcium mobilization.
The CHO-K1 cells stably transfected with human CXCR2 and the promiscuous Gα16 protein were maintained in a log phase of growth at 37° C. and 5% CO2 in the following media: Iscove's, 10% FBS, 1× Penicillin-Streptomycin, 400 μg/mL G418 and 350 μg/mL Zeocin. Approximately 24-48 hours prior to the assay, 20,000-30,000 cells/well were plated onto a 96-well black/clear bottomed assay plate (Becton Dickinson) with a well volume of 180 μl. […] The IC50 value of a compound was determined by calculation of % inhibition of total calcium response to the chemokine.

human CXCR2, sequence (P25025 whole entry): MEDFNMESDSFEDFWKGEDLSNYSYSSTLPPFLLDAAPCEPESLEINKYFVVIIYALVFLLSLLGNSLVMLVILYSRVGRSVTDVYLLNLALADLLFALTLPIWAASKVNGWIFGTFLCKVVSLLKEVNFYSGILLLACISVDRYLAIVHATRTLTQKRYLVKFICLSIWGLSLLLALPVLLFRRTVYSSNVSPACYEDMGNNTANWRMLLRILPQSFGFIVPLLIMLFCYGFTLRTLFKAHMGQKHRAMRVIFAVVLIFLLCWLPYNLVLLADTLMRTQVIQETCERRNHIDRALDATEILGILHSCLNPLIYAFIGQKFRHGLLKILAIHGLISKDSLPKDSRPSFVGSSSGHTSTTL

Row | Compound | pIC50
1 | CCC(NC(=O)c1ccc2ccccc2c1OCc1ccc(C(F)(F)F)cc1)(C(=O)O)c1ccccc1 (centres unmarked) [Example 10, 2-Phenyl-2-{[1-(4-trifluoromethyl-benzyloxy)-naphthalene-2-carbonyl]-amino}-butyric acid] | 5.66
2 | O=C(NC1(C(=O)O)CCOCC1)c1cc(F)c2ccccc2c1OCc1ccc(SC(F)(F)F)cc1 [Example 12, 4-{[4-Fluoro-1-(4-trifluoromethylsulfanyl-benzyloxy)-naphthalene-2-carbonyl]-amino}-tetrahydro-pyran-4-carboxylic acid] | 5.22
